Data as given in ChEMBL document CHEMBL2380238, “Synthesis, spectral and antimicrobial evaluation of some novel 1-methyl-3-alkyl-2,6-diphenylpiperidin-4-one oxime carbonates” (2013).
Values after ≈ are worked out from the molar mass of the structure shown. Active and inactive are the calls of the source. The rule behind the calls is not given here.

Key:
Format in all cases: functional
Escherichia coli [1] = assay: Antibacterial activity against Escherichia coli after 24 hrs by broth dilution method
Escherichia coli [2] = assay: Antibacterial activity against Escherichia coli
Aspergillus flavus [3] = assay: Antifungal activity against Aspergillus flavus after 72 to 96 hrs by broth dilution method
Aspergillus niger [4] = assay: Antifungal activity against Aspergillus niger after 72 to 96 hrs by broth dilution method
Bacillus subtilis [5] = assay: Antibacterial activity against Bacillus subtilis after 24 hrs by broth dilution method
Rhizopus [6] = assay: Antifungal activity against Rhizopus after 72 to 96 hrs by broth dilution method
Penicillium [7] = assay: Antifungal activity against Penicillium after 72 to 96 hrs by broth dilution method
Fusarium [8] = assay: Antifungal activity against Fusarium after 72 to 96 hrs by broth dilution method
Aspergillus niger [9] = assay: Antifungal activity against Aspergillus niger
Enterococcus faecalis [10] = assay: Antibacterial activity against Streptococcus faecalis after 24 hrs by broth dilution method
Klebsiella pneumoniae [11] = assay: Antibacterial activity against Klebsiella pneumoniae
Fusarium [12] = assay: Antifungal activity against Fusarium
Aspergillus flavus [13] = assay: Antifungal activity against Aspergillus flavus
Penicillium [14] = assay: Antifungal activity against Penicillium
Enterococcus faecalis [15] = assay: Antibacterial activity against Streptococcus faecalis
Pseudomonas aeruginosa [16] = assay: Antibacterial activity against Pseudomonas aeruginosa
Bacillus subtilis [17] = assay: Antibacterial activity against Bacillus subtilis
Pseudomonas aeruginosa [18] = assay: Antibacterial activity against Pseudomonas aeruginosa after 24 hrs by broth dilution method
Rhizopus [19] = assay: Antifungal activity against Rhizopus
Klebsiella pneumoniae [20] = assay: Antibacterial activity against Klebsiella pneumoniae after 24 hrs by broth dilution method

SMILES | MIC (Escherichia coli [1]) [µg/mL] | inhibition zone (IZ) (Escherichia coli [2]) [mm] | MIC (Aspergillus flavus [3]) [µg/mL] | MIC (Aspergillus niger [4]) [µg/mL] | MIC (Bacillus subtilis [5]) [µg/mL] | MIC (Rhizopus [6]) [µg/mL] | MIC (Penicillium [7]) [µg/mL] | MIC (Fusarium [8]) [µg/mL] | inhibition zone (IZ) (Aspergillus niger [9]) | MIC (Enterococcus faecalis [10]) [µg/mL] | inhibition zone (IZ) (Klebsiella pneumoniae [11]) | inhibition zone (IZ) (Fusarium [12]) | inhibition zone (IZ) (Aspergillus flavus [13]) | inhibition zone (IZ) (Penicillium [14]) | inhibition zone (IZ) (Enterococcus faecalis [15]) | inhibition zone (IZ) (Pseudomonas aeruginosa [16]) | inhibition zone (IZ) (Bacillus subtilis [17]) [mm] | MIC (Pseudomonas aeruginosa [18]) [µg/mL] | inhibition zone (IZ) (Rhizopus [19]) | MIC (Klebsiella pneumoniae [20]) [µg/mL]
CC1/C(=N/OC(=O)Oc2ccccc2)CC(c2ccccc2)N(C)C1c1ccccc1 (stereo not given) | 12.5 (≈ 30.2 µM) | 17 | 50 (≈ 121 µM) | 100 (≈ 241 µM) | 25 (≈ 60.3 µM) | 50 (≈ 121 µM) | 50 (≈ 121 µM) | 25 (≈ 60.3 µM) | 12 mm | 25 (≈ 60.3 µM) | 17 mm | 12 mm | 12 mm | 12 mm | 17 mm | 12 mm | 12 | 25 (≈ 60.3 µM) | 12 mm | 12.5 (≈ 30.2 µM)
CCOC(=O)O/N=C1\CC(c2ccccc2)N(C)C(c2ccccc2)C1CC (stereo not given) | 25 (≈ 65.7 µM) | 12 | 200 (≈ 526 µM) | 200 (≈ 526 µM) | 25 (≈ 65.7 µM) | 100 (≈ 263 µM) | 200 (≈ 526 µM) | 200 (≈ 526 µM) | inactive | 100 (≈ 263 µM) | inactive | inactive | inactive | inactive | 12 mm | inactive | 12 | 200 (≈ 526 µM) | 12 mm | 200 (≈ 526 µM)
CCC1/C(=N/OC(=O)Oc2ccccc2)CC(c2ccccc2)N(C)C1c1ccccc1 (stereo not given) | 25 (≈ 58.3 µM) | 12 | 50 (≈ 117 µM) | 50 (≈ 117 µM) | 25 (≈ 58.3 µM) | 25 (≈ 58.3 µM) | 25 (≈ 58.3 µM) | 50 (≈ 117 µM) | 17 mm | 25 (≈ 58.3 µM) | 22 mm | 17 mm | 17 mm | 17 mm | 17 mm | 17 mm | 17 | 12.5 (≈ 29.2 µM) | 17 mm | 6.25 (≈ 14.6 µM)
CC(Cl)OC(=O)O/N=C1\CC(c2ccccc2)N(C)C(c2ccccc2)C1C (stereo not given) | 12.5 (≈ 31.2 µM) | 22 | 50 (≈ 125 µM) | 50 (≈ 125 µM) | 50 (≈ 125 µM) | 25 (≈ 62.4 µM) | 25 (≈ 62.4 µM) | 25 (≈ 62.4 µM) | 17 mm | 12.5 (≈ 31.2 µM) | 22 mm | 17 mm | 17 mm | 17 mm | 22 mm | 22 mm | 17 | 25 (≈ 62.4 µM) | 17 mm | 12.5 (≈ 31.2 µM)
C[C@@H]1[C@H](O)[C@@H](C)/C=C/C=C/C=C/C=C/C=C/C=C/C=C/[C@H](O[C@@H]2O[C@H](C)[C@@H](O)[C@H](N)[C@@H]2O)C[C@@H]2O[C@](O)(C[C@@H](O)C[C@@H](O)[C@H](O)CC[C@@H](O)C[C@@H](O)CC(=O)O[C@H]1C)C[C@H](O)[C@H]2C(=O)O [AMPHOTERICIN B] | – | – | 50 (≈ 54.1 µM) | 50 (≈ 54.1 µM) | – | 25 (≈ 27.1 µM) | 25 (≈ 27.1 µM) | 25 (≈ 27.1 µM) | 21 mm | – | – | 22 mm | 22 mm | 22 mm | – | – | – | – | 21 mm | –
CCOC(=O)O/N=C1\CC(c2ccccc2)N(C)C(c2ccccc2)C1C(C)C (stereo not given) | 12.5 (≈ 31.7 µM) | 17 | 100 (≈ 253 µM) | 200 (≈ 507 µM) | 12.5 (≈ 31.7 µM) | 200 (≈ 507 µM) | 200 (≈ 507 µM) | 200 (≈ 507 µM) | inactive | 50 (≈ 127 µM) | inactive | inactive | 12 mm | inactive | 12 mm | inactive | 12 | 200 (≈ 507 µM) | inactive | 200 (≈ 507 µM)
CC(C)C1/C(=N/O)CC(c2ccccc2)N(C)C1c1ccccc1 (stereo not given) | 50 (≈ 155 µM) | 17 | 200 (≈ 620 µM) | 200 (≈ 620 µM) | 25 (≈ 77.5 µM) | 50 (≈ 155 µM) | 100 (≈ 310 µM) | 200 (≈ 620 µM) | inactive | 50 (≈ 155 µM) | inactive | inactive | inactive | 12 mm | 12 mm | 12 mm | 12 | 200 (≈ 620 µM) | 12 mm | 200 (≈ 620 µM)
CN[C@@H]1[C@H](O[C@H]2[C@H](O[C@H]3[C@H](O)[C@@H](O)[C@H](N=C(N)N)[C@@H](O)[C@@H]3N=C(N)N)O[C@@H](C)[C@]2(O)C=O)O[C@@H](CO)[C@H](O)[C@H]1O [STREPTOMYCIN] | 12.5 (≈ 21.5 µM) | 28 | – | – | 12.5 (≈ 21.5 µM) | – | – | – | – | 50 (≈ 86 µM) | 26 mm | – | – | – | 22 mm | 26 mm | 28 | 25 (≈ 43 µM) | – | 25 (≈ 43 µM)
CCC1/C(=N/OC(=O)OC(C)Cl)CC(c2ccccc2)N(C)C1c1ccccc1 (stereo not given) | 12.5 (≈ 30.1 µM) | 22 | 25 (≈ 60.3 µM) | 25 (≈ 60.3 µM) | 25 (≈ 60.3 µM) | 25 (≈ 60.3 µM) | 25 (≈ 60.3 µM) | 12.5 (≈ 30.1 µM) | 17 mm | 12.5 (≈ 30.1 µM) | 32 mm | 22 mm | 17 mm | 17 mm | 22 mm | 22 mm | 17 | 12.5 (≈ 30.1 µM) | 17 mm | 6.25 (≈ 15.1 µM)
CCOC(=O)O/N=C1\CC(c2ccccc2)N(C)C(c2ccccc2)C1C (stereo not given) | 50 (≈ 136 µM) | 12 | 100 (≈ 273 µM) | 200 (≈ 546 µM) | 50 (≈ 136 µM) | 200 (≈ 546 µM) | 200 (≈ 546 µM) | 200 (≈ 546 µM) | inactive | 200 (≈ 546 µM) | inactive | inactive | 12 mm | inactive | inactive | inactive | 12 | 200 (≈ 546 µM) | inactive | 200 (≈ 546 µM)
CC(C)C1/C(=N/OC(=O)Oc2ccccc2)CC(c2ccccc2)N(C)C1c1ccccc1 (stereo not given) | 25 (≈ 56.5 µM) | 17 | 50 (≈ 113 µM) | 50 (≈ 113 µM) | 25 (≈ 56.5 µM) | 25 (≈ 56.5 µM) | 25 (≈ 56.5 µM) | 25 (≈ 56.5 µM) | 12 mm | 25 (≈ 56.5 µM) | 22 mm | 17 mm | 17 mm | 17 mm | 17 mm | 22 mm | 17 | 6.25 (≈ 14.1 µM) | 17 mm | 6.25 (≈ 14.1 µM)
CC1/C(=N/O)CC(c2ccccc2)N(C)C1c1ccccc1 (stereo not given) | 100 (≈ 340 µM) | 12 | 200 (≈ 679 µM) | 200 (≈ 679 µM) | 100 (≈ 340 µM) | 100 (≈ 340 µM) | 200 (≈ 679 µM) | 200 (≈ 679 µM) | inactive | 200 (≈ 679 µM) | inactive | inactive | inactive | inactive | inactive | inactive | 12 | 200 (≈ 679 µM) | 12 mm | 200 (≈ 679 µM)
COC(=O)O/N=C1\CC(c2ccccc2)N(C)C(c2ccccc2)C1C(C)C (stereo not given) | 12.5 (≈ 32.9 µM) | 17 | 100 (≈ 263 µM) | 200 (≈ 526 µM) | 12.5 (≈ 32.9 µM) | 200 (≈ 526 µM) | 200 (≈ 526 µM) | 200 (≈ 526 µM) | inactive | 50 (≈ 131 µM) | inactive | inactive | 12 mm | inactive | 12 mm | inactive | 12 | 200 (≈ 526 µM) | inactive | 200 (≈ 526 µM)
CCC1/C(=N/O)CC(c2ccccc2)N(C)C1c1ccccc1 (stereo not given) | 50 (≈ 162 µM) | 12 | 200 (≈ 648 µM) | 200 (≈ 648 µM) | 50 (≈ 162 µM) | 100 (≈ 324 µM) | 200 (≈ 648 µM) | 200 (≈ 648 µM) | inactive | 200 (≈ 648 µM) | inactive | inactive | inactive | inactive | 12 mm | inactive | 12 | 200 (≈ 648 µM) | 12 mm | 200 (≈ 648 µM)
